These results are taken from ChEMBL document CHEMBL3217456 (Medchemcomm, 2014).

Each structure is given as a SMILES string. The source made the active and inactive calls. The rule behind the calls is not given here.

Test [1] has as its target Histamine H2 receptor (Cavia porcellus) (UniProt P47747). Description: Agonist activity at guinea pig histamine H2 receptor assessed as potentiation of histamine-induced response at 30 uM after 30 mins relative to histamine.
In test [2] the target is Histamine H1 receptor (Homo sapiens) (UniProt P35367). In words: Intrinsic activity at human recombinant histamine H1 receptor expressed in Sf9 cells coexpressing RGS4 preincubated for 2 mins before [gamma32P]GTP addition measured after 20 mins by steady-state GTPase activity assay relative to histamine.
Sequence of Histamine H1 receptor (Homo sapiens) (P35367 whole entry, the tested form may be a part): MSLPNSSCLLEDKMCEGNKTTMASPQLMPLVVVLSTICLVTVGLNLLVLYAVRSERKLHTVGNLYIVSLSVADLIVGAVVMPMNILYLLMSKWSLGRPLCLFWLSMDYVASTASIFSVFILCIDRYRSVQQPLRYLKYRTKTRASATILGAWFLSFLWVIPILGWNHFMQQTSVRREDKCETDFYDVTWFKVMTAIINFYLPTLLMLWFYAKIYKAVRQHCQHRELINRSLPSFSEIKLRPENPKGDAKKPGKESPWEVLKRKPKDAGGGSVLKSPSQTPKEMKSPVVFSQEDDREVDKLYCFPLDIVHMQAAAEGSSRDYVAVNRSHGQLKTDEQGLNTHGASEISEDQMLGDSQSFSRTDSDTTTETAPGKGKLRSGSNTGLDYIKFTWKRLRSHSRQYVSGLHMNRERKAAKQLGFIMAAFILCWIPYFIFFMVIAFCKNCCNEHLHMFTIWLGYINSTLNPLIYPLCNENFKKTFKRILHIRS
For test [3], the target named is T1, Histamine H3 receptor (Homo sapiens, UniProt Q9Y5N1). In words: Intrinsic activity at human recombinant histamine H3 receptor expressed in Sf9 cells coexpressing Galphai2,Gbeta1gamma2 and RGS4 preincubated for 2 mins before [gamma32P]GTP addition measured after 20 mins by steady-state GTPase activity assay relative to histamine.
T1 sequence (Q9Y5N1 whole entry): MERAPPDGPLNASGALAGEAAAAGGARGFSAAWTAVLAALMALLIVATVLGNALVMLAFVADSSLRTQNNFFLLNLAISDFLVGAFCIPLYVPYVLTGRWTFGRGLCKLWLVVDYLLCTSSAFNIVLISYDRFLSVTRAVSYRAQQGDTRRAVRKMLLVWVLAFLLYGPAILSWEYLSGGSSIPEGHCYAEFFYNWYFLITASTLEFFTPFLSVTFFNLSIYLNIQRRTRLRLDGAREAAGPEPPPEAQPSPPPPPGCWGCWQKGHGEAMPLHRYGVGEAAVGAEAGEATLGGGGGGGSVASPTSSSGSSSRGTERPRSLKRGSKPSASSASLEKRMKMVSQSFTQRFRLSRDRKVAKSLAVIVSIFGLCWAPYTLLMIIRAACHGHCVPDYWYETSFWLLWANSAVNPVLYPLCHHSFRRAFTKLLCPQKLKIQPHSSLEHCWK
Test [4] addresses T1, Histamine H3 receptor. Description: Antagonist activity at human recombinant histamine H3 receptor expressed in Sf9 cells coexpressing Galphai2,Gbeta1gamma2 and RGS4 assessed as inhibition of histamine-induced […] hydrolysis preincubated for 2 mins before [gamma32P]GTP addition measured after 20 mins by steady-state GTPase activity assay. Format: functional.
In test [5] the target is Histamine H2 receptor (Cavia porcellus) (UniProt P47747). Description: Antagonist activity at guinea pig histamine H2 receptor assessed as reduction of histamine-induced maximal response after 30 mins.
Sequence of Histamine H2 receptor (Cavia porcellus) (P47747 whole entry, the tested form may be a part): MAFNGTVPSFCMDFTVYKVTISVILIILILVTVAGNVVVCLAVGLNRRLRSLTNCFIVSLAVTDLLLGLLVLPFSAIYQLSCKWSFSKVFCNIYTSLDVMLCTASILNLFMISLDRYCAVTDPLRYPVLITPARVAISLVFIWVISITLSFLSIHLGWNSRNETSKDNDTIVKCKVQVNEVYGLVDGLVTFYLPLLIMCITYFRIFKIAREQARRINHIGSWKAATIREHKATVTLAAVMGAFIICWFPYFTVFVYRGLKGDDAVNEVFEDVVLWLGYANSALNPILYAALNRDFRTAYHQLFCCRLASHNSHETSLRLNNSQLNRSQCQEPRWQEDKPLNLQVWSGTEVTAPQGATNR
In test [6] the target is T2, Histamine H2 receptor (Homo sapiens, UniProt P25021). In words: Antagonist activity at human recombinant histamine H2 receptor-Gsalphas fusion protein expressed in Sf9 cells assessed as inhibition of histamine-induced […] hydrolysis preincubated for 2 mins before [gamma32P]GTP addition measured after 20 mins by steady-state GTPase activity assay. Format: functional.
T2 sequence (P25021 whole entry, the tested form may be a part): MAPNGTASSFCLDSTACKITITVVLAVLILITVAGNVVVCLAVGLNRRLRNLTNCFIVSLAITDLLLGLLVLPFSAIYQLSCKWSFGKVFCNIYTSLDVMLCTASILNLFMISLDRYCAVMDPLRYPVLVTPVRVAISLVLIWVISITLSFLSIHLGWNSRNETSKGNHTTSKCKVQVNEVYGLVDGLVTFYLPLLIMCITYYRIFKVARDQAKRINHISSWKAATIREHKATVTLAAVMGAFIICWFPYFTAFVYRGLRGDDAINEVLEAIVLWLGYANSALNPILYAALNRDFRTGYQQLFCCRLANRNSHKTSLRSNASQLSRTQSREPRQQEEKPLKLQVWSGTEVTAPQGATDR

Test [7] concerns the target T3, Histamine H4 receptor (Homo sapiens, UniProt Q9H3N8). In words: Agonist activity at human recombinant histamine H4 receptor-RGS19 fusion protein expressed in Sf9 cells coexpressing Galphai2,Gbeta1gamma2 preincubated for 2 mins before [gamma32P]GTP addition measured after 20 mins by steady-state GTPase activity assay.
Test [8] deals with T2, Histamine H2 receptor. Description: Intrinsic activity at human recombinant histamine H2 receptor-Gsalphas fusion protein expressed in Sf9 cells preincubated for 2 mins before [gamma32P]GTP addition measured after 20 mins by steady-state GTPase activity assay relative to histamine.
Test [9] deals with Histamine H1 receptor (Homo sapiens) (UniProt P35367). In words: Antagonist activity at human recombinant histamine H1 receptor expressed in Sf9 cells coexpressing RGS4 assessed as inhibition of histamine-induced […] hydrolysis preincubated for 2 mins before [gamma32P]GTP addition measured after 20 mins by steady-state GTPase activity assay. Format: functional.
For test [10], the target named is T3, Histamine H4 receptor. In words: Intrinsic activity at human recombinant histamine H4 receptor-RGS19 fusion protein expressed in Sf9 cells coexpressing Galphai2,Gbeta1gamma2 preincubated for 2 mins before [gamma32P]GTP addition measured after 20 mins by steady-state GTPase activity assay relative to histamine.
Test [11] deals with T4, Histamine H2 receptor (Cavia porcellus, UniProt P47747). Description: (§1) Antagonist activity at guinea pig histamine H2 receptor assessed as inhibition of histamine-induced response after 30 mins. Particulars: read-out: pA2 (converted).
T4 sequence (P47747 whole entry, the tested form may be a part): as the sequence (P47747 whole entry, the tested form may be a part) above
A short description of test [12]: Selectivity ratio of EC50 for human recombinant histamine H1 receptor expressed in Sf9 cells coexpressing RGS4 to EC50 for human recombinant histamine H4 receptor-RGS19 fusion protein expressed in Sf9 cells coexpressing Galphai2,Gbeta1gamma2.
Test [13] concerns the target T1, Histamine H3 receptor. In words: Intrinsic activity at human recombinant histamine H3 receptor expressed in Sf9 cells coexpressing Galphai2,Gbeta1gamma2 and RGS4 assessed as [35S]GTPgammaS binding at 10 uM after 90 mins by liquid scintillation counting relative to histamine. It counts as functional.
Test [14] addresses T3, Histamine H4 receptor. Description: Agonist activity at human recombinant histamine H4 receptor-RGS19 fusion protein expressed in Sf9 cells coexpressing Galphai2,Gbeta1gamma2 assessed as [35S]GTPgammaS binding after 90 mins by liquid scintillation counting. Format: functional.
In test [15] the target is T2, Histamine H2 receptor. In words: Intrinsic activity at human recombinant histamine H2 receptor-Gsalphas fusion protein expressed in Sf9 cells assessed as [35S]GTPgammaS binding at 10 uM after 90 mins by liquid scintillation counting relative to histamine. Format: functional.
Test [16] concerns the target T1, Histamine H3 receptor. In words: Antagonist activity at human recombinant histamine H3 receptor expressed in Sf9 cells coexpressing Galphai2,Gbeta1gamma2 and RGS4 assessed as inhibition of histamine-induced [35S]GTPgammaS binding after 90 mins by liquid scintillation counting. Format: functional.
The nature of test [17]: Selectivity ratio of EC50 for human recombinant histamine H2 receptor-Gsalphas fusion protein expressed in Sf9 cells to EC50 for human recombinant histamine H4 receptor-RGS19 fusion protein expressed in Sf9 cells coexpressing Galphai2,Gbeta1gamma2.
Test [18] in a line: Selectivity ratio of EC50 for human recombinant histamine H3 receptor expressed in Sf9 cells coexpressing Galphai2,Gbeta1gamma2 and RGS4 to EC50 for human recombinant histamine H4 receptor-RGS19 fusion protein expressed in Sf9 cells coexpressing Galphai2,Gbeta1gamma2.
For test [19], the target named is T3, Histamine H4 receptor. In words: Intrinsic activity at human recombinant histamine H4 receptor-RGS19 fusion protein expressed in Sf9 cells coexpressing Galphai2,Gbeta1gamma2 assessed as [35S]GTPgammaS binding at 10 uM after 90 mins by liquid scintillation counting relative to histamine. Format: functional.
For test [20], the target named is T2, Histamine H2 receptor. In words: Antagonist activity at human recombinant histamine H2 receptor-Gsalphas fusion protein expressed in Sf9 cells assessed as inhibition of histamine-induced [35S]GTPgammaS binding after 90 mins by liquid scintillation counting. Format: functional.
Test [21] addresses T4, Histamine H2 receptor. Description: Agonist activity at guinea pig atrium histamine H2 receptor assessed as potentiation of histamine-induced response after 30 mins. Set-up: species or system Cardiac atrium.
The target of test [22] is T2, Histamine H2 receptor. In words: Agonist activity at human recombinant histamine H2 receptor-Gsalphas fusion protein expressed in Sf9 cells preincubated for 2 mins before [gamma32P]GTP addition measured after 20 mins by steady-state GTPase activity assay.
Test [23] has as its target Histamine H2 receptor (Cavia porcellus) (UniProt P47747). In words: Agonist activity at guinea pig histamine H2 receptor assessed as potentiation of histamine-induced response after 30 mins relative to histamine.
In test [24] the target is Histamine H1 receptor (Cavia porcellus, UniProt P31389). In words: Antagonist activity at guinea pig ileum histamine H1 receptor assessed as inhibition of histamine-induced response after 10 to 15 mins. It counts as tissue-based. Particulars: read-out: pA2 (converted).
Sequence of Histamine H1 receptor (P31389 whole entry, the tested form may be a part): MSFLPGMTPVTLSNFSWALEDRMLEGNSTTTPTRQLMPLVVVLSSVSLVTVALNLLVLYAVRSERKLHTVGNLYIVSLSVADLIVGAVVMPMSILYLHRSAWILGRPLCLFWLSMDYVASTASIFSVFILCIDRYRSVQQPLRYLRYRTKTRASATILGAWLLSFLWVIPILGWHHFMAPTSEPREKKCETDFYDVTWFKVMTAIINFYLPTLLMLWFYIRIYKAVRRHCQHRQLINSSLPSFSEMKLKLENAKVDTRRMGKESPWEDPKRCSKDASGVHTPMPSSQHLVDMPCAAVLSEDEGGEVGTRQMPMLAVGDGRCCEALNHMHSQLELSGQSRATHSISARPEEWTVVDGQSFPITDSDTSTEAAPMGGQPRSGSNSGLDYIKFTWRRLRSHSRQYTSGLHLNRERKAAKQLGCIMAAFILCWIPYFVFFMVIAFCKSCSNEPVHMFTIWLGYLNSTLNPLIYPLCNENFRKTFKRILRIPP
Test [25] addresses T3, Histamine H4 receptor. In words: Antagonist activity at human recombinant histamine H4 receptor-RGS19 fusion protein expressed in Sf9 cells coexpressing Galphai2,Gbeta1gamma2 assessed as inhibition of histamine-induced […] hydrolysis preincubated for 2 mins before [gamma32P]GTP addition measured after 20 mins by steady-state GTPase activity assay. It counts as functional.

Test [26] deals with Histamine H2 receptor (Cavia porcellus) (UniProt P47747). The description is as §1.
Test [27] addresses T4, Histamine H2 receptor. Description: Agonist activity at guinea pig histamine H2 receptor assessed as potentiation of histamine-induced response at after 30 mins.
The target in test [28] is Histamine H2 receptor (Cavia porcellus) (UniProt P47747). Description: Agonist activity at guinea pig histamine H2 receptor assessed as potentiation of histamine-induced response at 10 uM after 30 mins relative to histamine.

T3 sequence (Q9H3N8 whole entry, the tested form may be a part): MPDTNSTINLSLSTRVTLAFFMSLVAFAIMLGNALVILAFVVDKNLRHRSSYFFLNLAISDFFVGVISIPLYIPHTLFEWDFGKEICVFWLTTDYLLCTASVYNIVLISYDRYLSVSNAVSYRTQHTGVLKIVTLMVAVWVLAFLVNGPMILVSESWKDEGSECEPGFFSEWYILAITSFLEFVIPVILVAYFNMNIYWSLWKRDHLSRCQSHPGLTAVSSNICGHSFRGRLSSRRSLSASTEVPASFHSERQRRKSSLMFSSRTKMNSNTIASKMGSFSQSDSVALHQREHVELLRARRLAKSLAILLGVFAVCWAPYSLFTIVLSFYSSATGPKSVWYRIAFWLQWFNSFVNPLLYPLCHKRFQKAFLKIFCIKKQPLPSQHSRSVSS

As to `CC(CC(=O)/N=C(\N)NCCCc1ncc[nH]1)c1ccccc1` (stereo not given), the maximum response (Emax) in test [1] amounted to 54%. In addition, the Intrinsic activity is 0.09 in test [2], -0.32 in [3], 0.03 in test [8] and 0.35 in test [10]. Besides, the pKb in [4] was 5.41; in test [6], 5.3; in test [9] it was under 5. Also, the pD'2 in test [5] came out at 4.44. For the same molecule, in test [7], the 50% effective concentration (EC50) is 2880 nM. In addition, the Kb in test [11] is 12600 nM.

For the molecule `Cc1[nH]cnc1CCCCN/C(=N\C#N)NCCSc1ccccc1`, the Ratio EC50 in [12], in test [17] and in test [18] was over 10 throughout. The Intrinsic activity was -0.03 in test [2], -0.65 in test [13], -0.06 in [15] and 0.37 in test [19]. Also, the concentration giving a half-maximal response (EC50) in test [14] was 245 nM. Also, the pKb in test [16] is 5.5; in [9], under 5.3; in [20] it was 5.36.

For `N/C(=N\C(=O)CC(c1ccccc1)c1ccccc1)NCCCc1ncn[nH]1`, the Intrinsic activity in [2] was 0.06; in [3], -0.03; in test [8], 0.42. Moreover, the EC50 in test [21] was 204 nM; in [22], 407 nM. Besides, the pKb in test [4] and in test [9] was under 5 each time. Besides, the pEC50 entry in [7] was “inactive”. The Efficacy in test [23] came to 83%. Further, the Kb in test [24] was 1620 nM.

In the case of `CC(CC(=O)/N=C(\N)NCCCc1ccncc1)c1ccccc1` (stereo not given), the Intrinsic activity was 0.12 in [2], -0.07 in test [3] and 0 in test [8]. Also, the negative logarithm of the Kb (pKb) in [4] was under 5; in [25] it was under 5; in [6], 5.54; in test [9], under 5. The pD'2 in test [5] is 4.54. Further, in test [11], the Kb was 19100 nM. Further, the pD2 in [26] worked out at 4.54.

In the case of `CC(CC(=O)/N=C(\N)NCCCc1ccccn1)c1ccccc1` (stereo not given), the Intrinsic activity in [2] was 0.21; in test [3] it was -0.17; in test [8] it was 0.3. Further, the 50% effective concentration (EC50) in [21] is 195 nM; in test [22], 832 nM. In addition, the pKb in test [4] was under 5; in test [25], under 5; in test [9], 5.34. In addition, the Efficacy in test [23] worked out at 26%.

With `CC(CC(=O)/N=C(\N)NCCCc1ncn[nH]1)c1ccccc1` (stereo not given), the Intrinsic activity in [3] was -0.03; in test [8] it was 0.66. For the same molecule, the negative logarithm of the Kb (pKb) in test [4] and in test [9] was under 5 throughout. For the same molecule, the concentration giving a half-maximal response (EC50) in test [27] was 100 nM; in [22], 741 nM. In test [7], the pEC50 result is “inactive”. In addition, in test [23], the Efficacy worked out at 100%. Moreover, the figures for the Kb in test [11] and in test [24] were 479 nM and 1480 nM, respectively.

As to `CC(CC(=O)/N=C(\N)NCCCc1cn[nH]c1)c1ccccc1` (stereo not given), the Intrinsic activity amounted to 0.04 in test [3] and 0.44 in [8]. The EC50 was 468 nM in test [21] and 240 nM in [22]. The pKb in test [4], in test [25] and in test [9] was under 5 each time. Further, the Efficacy in [23] was determined as 54%. Further, in test [24], the Kb is 3800 nM.

Regarding `CC(CC(=O)/N=C(\N)NCCCc1ccc(CN(C)C)o1)c1ccccc1` (stereo not given), the Intrinsic activity is 0.04 in test [2], -0.64 in [3] and -0.12 in test [8]. For the same molecule, the pKb in test [4] was 5.92; in test [25] it was under 5; in test [6] it was 6.52; in test [9], under 5. Also, the Efficacy in test [23] is 0%. In addition, the maximal effect (Emax) in test [28] worked out at 68%. In addition, the Kb in [24] is 3020 nM.

Take `CC(CC(=O)/N=C(\N)NCCCn1ccnc1)c1ccccc1` (stereo not given): in test [1], the maximum response (Emax) was 69%. Moreover, the Intrinsic activity in test [3] is -0.05; in test [10], 0.77. Moreover, the pKb in [4], in [6] and in test [9] was under 5 each time. The pD'2 in [5] came out at 4.16. In addition, the concentration for a half-maximal effect (EC50) in test [7] was 1000 nM. The Kb in [11] is over 31600 nM; in test [24] it was 1120 nM.
